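Results reflect a 48-hour exposure of cells in 96-well plates to compound at five concentrations. The concentration for full growth arrest is given as TGI.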
Key:
Assay in all cases: inhibition of tumour cell growth, NCI panel, 48 h
PC-3 prostate = test system: PC-3 prostate
786-0 renal = test system: 786-0 renal
SF-539 CNS = test system: SF-539 CNS
HL-60(TB) leukemia = test system: HL-60(TB) leukemia
T-47D breast = test system: T-47D breast
OVCAR-5 ovarian = test system: OVCAR-5 ovarian
M14 melanoma = test system: M14 melanoma
SK-MEL-28 melanoma = test system: SK-MEL-28 melanoma
OVCAR-3 ovarian = test system: OVCAR-3 ovarian
NCI-H522 lung = test system: NCI-H522 lung
SF-295 CNS = test system: SF-295 CNS
MOLT-4 leukemia = test system: MOLT-4 leukemia

SMILES | TGI (PC-3 prostate) [µM] | TGI (786-0 renal) [µM] | TGI (SF-539 CNS) [µM] | TGI (HL-60(TB) leukemia) [µM] | TGI (T-47D breast) [µM] | TGI (OVCAR-5 ovarian) [µM] | TGI (M14 melanoma) [µM] | TGI (SK-MEL-28 melanoma) [µM] | TGI (OVCAR-3 ovarian) [µM] | TGI (NCI-H522 lung) [µM] | TGI (SF-295 CNS) [µM] | TGI (MOLT-4 leukemia) [µM]
Nc1nc(Nc2ccc(Cl)cc2)sc1C(=O)c1cc2ccccc2oc1=O | > 100 | > 100 | > 100 | > 100 | > 100 | > 100 | > 100 | > 100 | 38.6 |  |  | 
CCOC(=O)c1sc2nc(SC)nc(Nc3ccc(OC)c(OC)c3)c2c1N | > 100 | > 100 | > 100 | > 100 | > 100 | > 100 | > 100 | 52.7 | > 100 | > 100 | 45.6 | 
Nc1nc(Cl)cc(Nc2ccc3c(c2)CCC3)n1 | > 100 | > 100 | > 100 | 80.9 | > 100 | > 100 | > 100 | > 100 | > 100 | > 100 | > 100 | 84.7
C=CCSc1nn(CC=C)cc2ncnc1-2 | > 100 | > 100 | > 100 | > 100 | > 100 | > 100 | > 100 | > 100 | > 100 |  | > 100 | > 100
O=S(=O)(Nc1ccccc1S(=O)(=O)c1ccccc1)c1ccccc1 | > 100 | > 100 | > 100 | > 100 | > 100 | > 100 | > 100 | > 100 | > 100 | > 100 | > 100 | > 100
OCCOCCO[P+]1(OCCOCCO)n2c3ccc2C(c2ccccc2)=C2C=CC(=N2)C(c2ccccc2)=c2ccc(n21)=C(c1ccccc1)C1=NC(=C3c2ccccc2)C=C1 | 1.2 | 1.51 |  | 0.18 | 2.04 | 1.95 | 1.38 | 0.778 | 0.158 | 0.448 | 1.03 | 0.189
COC(=O)c1ccccc1CC1Cc2cc3c(cc2C1)CCC3 | > 100 | > 100 | > 100 | 23.4 | > 100 | > 100 | 93.4 | > 100 | > 100 | 91.6 | > 100 | 38.8
O=C(O)/C(=C\c1ccccc1)Cc1ccccc1 | > 100 | > 100 | > 100 | > 100 | > 100 | > 100 | > 100 | > 100 | > 100 | > 100 | > 100 | > 100
CC1C(c2ccccc2O)c2cc3c(cc2OC1N1CCCC1)OCO3 (configuration not stated) | 98.8 | 91 | 50.2 | 35.1 | > 100 | > 100 | 36.8 | 46.6 | 56.6 | 70.3 | 74.9 | 65
CC(=O)Oc1ccc(-c2cc3ccccc3oc2=O)cc1OC(C)=O | > 100 | > 100 | > 100 | 7.48 | > 100 | > 100 | > 100 | > 100 |  | > 100 | 67.9 | > 100
CS(=O)(=O)C(=Cc1ccccc1Cl)S(C)(=O)=O | > 100 | > 100 | > 100 | > 100 | > 100 | > 100 | > 100 | > 100 | > 100 | > 100 | > 46.4 | > 100
CC(C)CCNC(=O)c1ccc(CNC(=O)/C=C/c2ccc(-c3ccccc3[N+](=O)[O-])o2)cc1 | > 100 | > 100 |  | > 100 | 63.5 | > 100 | > 100 | > 100 | > 100 |  | > 100 | > 100
Nc1nc(Cl)c2ncn(Cc3ccccc3CCl)c2n1 | 68.1 | 52 | 38.2 | > 100 | 83.9 | 39.8 | 40.1 | 20.7 | 10.9 | 9.41 | 23.4 | > 100
COc1cc(/C=C2\NC(=O)N(/C=C3\C(=O)Oc4ccccc4C3=O)C2=O)ccc1O | > 100 | > 100 | > 100 | 62 | > 100 | > 100 | > 100 |  |  | > 100 | > 100 | > 100
C=C1C(=O)C=C2C=C3C(=O)C(C)(C)C[C@]3(O)C12C (some centres not stated) | 10.2 | 3.41 | > 57.5 | 2.54 | 5.98 | 21.4 | 3.04 | 6.76 | 4.49 | 3.38 | 45.7 | 2.28
O=[N+]([O-])c1cc(Cl)ccc1S(=O)(=O)c1ccccc1 | > 100 | > 100 | > 100 | > 100 | > 100 | > 100 | > 100 | > 100 | > 100 | > 100 | > 100 | > 100
O=[N+]([O-])C(=C1Nc2ccccc2N1)C(Cl)=C(Cl)Cl | > 100 | > 100 | > 100 | > 100 | 77.7 | > 100 | > 100 | > 100 | 53.1 | > 100 | > 100 | 56.3
CCOC(=O)Cn1nc2ccc(Nc3nc4ccccc4nc3C(=O)OCC)cc2n1 | > 100 | > 100 | 52.8 | > 100 | > 100 | > 100 | > 100 | > 100 | > 100 | > 100 | > 100 | > 100
OC[C@H]1CC(c2nn[nH]n2)[C@H](O)[C@@H]1O (some centres not stated) | > 100 | > 100 | > 100 | > 100 | > 100 | > 100 | > 100 | > 100 | > 100 | > 100 | > 100 | > 100
N#Cc1c(N2CCOCC2)ncn(-c2ccccc2)c1=O | > 100 | > 100 | > 100 | > 100 | > 100 | > 100 | > 100 | > 100 | > 100 |  | > 100 | > 100

SMILES | TGI (PC-3 prostate) [µM] | TGI (786-0 renal) [µM] | TGI (SF-539 CNS) [µM] | TGI (HL-60(TB) leukemia) [µM] | TGI (T-47D breast) [µM] | TGI (OVCAR-5 ovarian) [µM] | TGI (M14 melanoma) [µM] | TGI (SK-MEL-28 melanoma) [µM] | TGI (OVCAR-3 ovarian) [µM] | TGI (NCI-H522 lung) [µM] | TGI (SF-295 CNS) [µM] | TGI (MOLT-4 leukemia) [µM]
CN1N=C(c2ccncc2)OC1c1ccc(Cl)c(Cl)c1 (configuration not stated) | > 100 | > 100 | > 100 | > 100 | > 100 | > 100 | > 100 | > 100 | > 100 | > 100 | > 100 | > 100
CCCCCCCCCCCCCCCCCCNc1ccn(C2OC(CO)C(OP(=O)(O)OCC3CCC(n4ccc(N)nc4=O)O3)C2O)c(=O)n1 (configuration not stated) | 40.6 | > 100 | > 100 | 43.6 | > 100 | > 100 | > 100 | > 100 | > 100 | > 100 | > 100 | 10.2
COc1ccc(-c2nc3ccc(C)cc3o2)c(OC)c1 | 67.1 | 41.7 | 40.9 | 50 | > 96.1 | 42 | 35.7 | > 100 | 46.9 | 39.2 | 46.8 | 52.9
COc1cc(CNC(=O)CCCCCCCC/C=C/Br)ccc1O | > 10 | > 10 | > 10 | > 10 | > 10 |  | > 10 | > 10 | > 10 | > 10 | > 10 | > 10
CC[C@H](CCCCC1CC[C@@H]2CC(=O)C[C@H]12)OC (some centres not stated) | > 100 | > 100 | > 100 | > 100 | > 100 | > 100 | > 100 | > 100 | > 100 | > 100 | > 100 | > 100
CC(C)(C)SC1=CCC[C@@H](P(=O)(c2ccccc2)c2ccccc2)[C@@H]2CCC[C@@H]12 | 28.6 | 30.4 | 36.5 | 47.5 | 33.3 | 27.1 | 29.5 | 54.6 | 32.7 | 31.3 | 29 | 38.1
CNC(=O)N(CCC#N)CCN(CCN(C(=O)NC)c1ccccc1)C(=O)NC | > 100 | > 100 | > 100 |  | > 100 | > 100 | > 100 | > 100 | > 100 | > 100 | > 100 | > 100
Cc1cc(S(=O)(=O)Nc2nc(N)n(C)n2)c(S)cc1Cl | > 10 | > 10 | > 10 | > 10 | > 10 | > 10 | > 10 | > 10 | > 10 | > 10 | > 10 | > 10
CCCCNc1nc(SC)nc2nc[nH]c12 | > 100 | > 100 | > 100 | > 100 | > 100 | > 100 | > 100 | > 100 | > 100 | > 100 | > 100 | > 100
COC(=O)[C@]1(c2cc3ccccc3[nH]2)CC2CN(CC(=O)N(C)OC)C1C1OC(C)(C)OC21 (some centres not stated) | > 100 | > 100 | > 100 | 51.4 | > 100 | > 100 | > 100 | > 100 | > 100 | > 100 | > 100 | 49.9
COc1ccc(C2=C(OC(C)=O)c3cccn3-c3ccccc3S2)cc1 | > 10 | > 10 |  | 4.57 | > 10 |  | > 10 | > 10 |  |  | 5.03 | > 10
COC(=O)[C@]1(c2cc3ccccc3n2S(=O)(=O)c2ccccc2)CC2CCC1NC2 (some centres not stated) | 24.5 | 27.3 | 32.2 | 16.9 | 27.2 | 29.9 | 27.2 | 32 | 33.1 | 30.6 | 31.2 | 
Cc1ccc(S(=O)(=O)n2ccn3c(=O)cc(C)nc23)cc1 | > 10 | > 10 | > 10 | > 10 | > 10 | > 10 | > 10 | > 10 | > 10 |  | > 10 | > 10
CC(O[Si](C)(C)C(C)(C)C)[C@H](NC(=O)OCC(Cl)(Cl)Cl)C(=O)O (some centres not stated) | > 100 | > 100 | > 100 | > 100 | > 100 | > 100 |  | > 100 | > 100 | > 100 | > 100 | > 100
COc1cc2c[n+](C)c3c4ccccc4ccc3c2cc1OC | > 43.2 | 60.4 | 23.7 |  | 9.22 | > 100 | 42.6 | 18.1 | 34.9 | 5.57 | > 73.3 | 20.6
CN1c2ccccc2C2c3c(O)ccc(O)c3C=C([N+](=O)[O-])C21 (configuration not stated) | 4.79 | 2.13 | 4.45 | 3.17 | > 100 | 5.87 | 1.44 | 11.3 |  | 0.17 | 8.29 | > 27.4
COc1ccc(OC)c(C2CCc3cnc4nc(N)nc(N)c4c3C2)c1 (configuration not stated) | > 100 | > 100 |  | > 100 | > 100 | > 100 | > 100 | > 100 | > 100 | > 100 | > 100 | > 100
Cc1cccc(C)c1NC(=S)/N=C/C1=C(O)c2ccccc2C1=O | > 100 | > 100 | > 59.9 | > 100 | > 100 | > 100 | > 100 | > 100 | > 100 | 17.9 | > 100 | 
C=CCCCC1(C)CCCCNC1=O (configuration not stated) | > 10 | > 10 | > 10 | > 10 | > 10 | > 10 | > 10 | > 10 | > 10 |  | > 10 | > 10
